Broadly, the IC90 is the concentration at which the effect reaches the 90% level. A higher IC90 goes with a need for much substance.

Converted amounts (≈) assume the structure as drawn.

A short description of series [1]: Countercurrent distribution, KrKb (partition coefficient x dissociation constant). The format is physicochemical. As for the experimental part: The diverse tertiary alkaloids contained in the basic extract of Example 1, were separated by countercurrent distribution, with dichloromethane as the stationary phase and an aqueous buffer with an incrementally decreasing pH (mobile phase). The alkaloids were recovered from the aqueous phase by extraction with dichloromethane.
The equipment used was a Craig type Post apparatus made up of 200 glass tubes (with 10 ml volumes for the lower phase and 10 ml volumes for the upper phase).

Series [2] has as its system Plasmodium falciparum Strain D6. Put plainly: In vitro antiplasmodial activity (IC50), strain D6. It counts as cell-based. On the procedure: (§1) The basic extracts obtained as in Example 1, from both the root and stem bark with a yield of 1.9% were used to carry out the in vitro antiplasmodial activity study on known Plasmodium falciparum strains.
(§2) Plasmodium falciparum strains D6 and W2 were used throughout this investigation. Laboratory isolates of P. falciparum were grown under controlled conditions in culture medium containing leukocyte-free red blood cells (RBCs) at 5% hematocrit (Tager and Jensen, 1976). Briefly, parasites were allowed to infect RBCs in a media consisting of RPMI 1640 plus 25 mM Hepes, 0.25 glucose, 0.2% sodium bicarbonate, 0.5% Albumax II, and 50 mg/liter hypoxanthine and grown in 5% CO2 at 37° C. […]
(§3) Assessment of parasite development and morphology. Parasite development and morphology were evaluated by microscopic examination of Giemsa-stained thin blood smears at 24, 48, and 72 hour intervals in the presence of increasing doses of the alkaloids dissolved as a stock solution in 10% (v/v) dimethylsulphoxide (DMSO) in RPMI 1640. […] Smears from drug-free cultures were always used as controls Parasitemia was measured by counting blood cells and expressed as percentage of total parasitized erythrocytes (Table 3).

The subject of series [3] is Plasmodium falciparum Strain W2. Put plainly: In vitro antiplasmodial activity (IC50), strain W2. The format is cell-based. As for the experimental part:
as §1, §2, §3

Series [4] relates to Leishmania infantum promastigotes. The series can be described thus: In vitro leishmanicidal activity, MTT assay. The format is cell-based. The following applies: for Fold Increase (IC50), voacamine with respect to the basic extract: ratio of IC50. As for the experimental part:
Preparation of the anti-leishmanial compositions: The total plant extract was dissolved in DMSO as a 50 mg/mL stock. The purified alkaloid, voacamine, was dissolved in 50% DMSO at a 3 mg/mL stock.
In vitro drug testing. […] 10 μL of 3-(4,5-dimethylthiazol-2-yl)-2,5-diphenyl-2H-tetrazol bromide (MTT, Sigma, 5 mg/mL in PBS) were added to each well and plates were incubated for an additional period of 5 hours. Only viable cells are able to reduce the MTT compound to produce water-insoluble formazan crystals of a purple color. These crystals were dissolved by adding 100 μL of SDS 20% and incubating overnight at 37° C. The absorbance was subsequently read at 540 nanometers using a microplate reader (Beckman Biomek 2000). Cell survival was determined by dividing the absorbance of the compound at a given concentration by the absorbance of control cells grown in the absence of drug. The 50% inhibitory concentration (IC50) values were graphically determined after plotting the percentage of growth as a function of drug concentration. All experiments were performed in duplicate.
For orientation: Tetrazolium assays rely on reduction of a dye to a coloured formazan, in cell work by metabolically active cells.

Regarding N-demethylvoacamine, in series [1], the “KrKb (Kr partition coefficient aqueous phase/organic phase, Kb dissociation constant)” value is given as 3.5×10^−11.
On to `C/C=C1/CN2[C@H]3C[C@@H]1[C@@H](CO)[C@@H]2Cc1c3n(C)c2ccccc12` [affinisine], for which, in series [1], the “KrKb (Kr partition coefficient aqueous phase/organic phase, Kb dissociation constant)” value is 7×10^−10.
With `C/C=C1/CN2[C@H]3Cc4c(n(C)c5ccccc45)[C@@H]2C[C@@H]1[C@@]3(CO)C(=O)OC` [voachalotine], the “KrKb (Kr partition coefficient aqueous phase/organic phase, Kb dissociation constant)” value in series [1] is 2×10^−11.
In the case of `CC=C1CN(C)C2Cc3c([nH]c4ccccc34)C(c3cc4[nH]c5c(c4cc3OC)CCN3CC4CC(CC)C3C5(C(=O)OC)C4)CC1C2C(=O)OC` (stereo not drawn) [Ex. 2, voacamine], the IC50 in series [2] came to 0.238 µg/mL (≈ 0.338 µM); in series [3], 0.29 µg/mL (≈ 0.411 µM); in series [4] (Leishmania infantum, 72 h, read-out: IC50 (concentration required to kill 50% of the parasites)), 3.3 µg/mL (≈ 4.68 µM). Besides, the IC90 in series [4] (Leishmania infantum, 72 h) turned out to be 7 µg/mL (≈ 9.93 µM). In addition, the “concentration producing complete cellular destruction” value in series [4] (before 72 hours) stood at 10 µg/mL. Besides, the “Fold Increase (IC50), voacamine with respect to the basic extract” value in series [4] (listed as Voacamine) is listed as 20.7 fold; in series [4] (listed as voacamine) it was 20 fold. In addition, the “Fold Increase (IC90), voacamine with respect to the basic extract” value in series [4] (ratio of IC90) turned out to be 15.7 fold.
On to `CC=C1CN(C)C2Cc3c([nH]c4ccccc34)C(=O)CC1C2CO` (stereo not drawn) [16-epi-affinine], for which, in series [1], the “KrKb (Kr partition coefficient aqueous phase/organic phase, Kb dissociation constant)” value is given as 2.5×10^−9.

For the origin of these results see patent US20070232588A1, “Anti-parasitic and/or anti-viral and/or anti-microbial compositions” (priority 2004, published 2007).
